Test results reported in ChEMBL document CHEMBL5053510, “Discovery of AS-1763: A Potent, Selective, Noncovalent, and Orally Available Inhibitor of Bruton's Tyrosine Kinase” (J Med Chem, 2021).

Target: Tyrosine-protein kinase BTK (Homo sapiens, UniProt Q06187)
Assay: Inhibition of human BTK-A using phosphorylated substrate in presence of ATP by microplate reader assay

Sequence of Tyrosine-protein kinase BTK (Q06187 whole entry): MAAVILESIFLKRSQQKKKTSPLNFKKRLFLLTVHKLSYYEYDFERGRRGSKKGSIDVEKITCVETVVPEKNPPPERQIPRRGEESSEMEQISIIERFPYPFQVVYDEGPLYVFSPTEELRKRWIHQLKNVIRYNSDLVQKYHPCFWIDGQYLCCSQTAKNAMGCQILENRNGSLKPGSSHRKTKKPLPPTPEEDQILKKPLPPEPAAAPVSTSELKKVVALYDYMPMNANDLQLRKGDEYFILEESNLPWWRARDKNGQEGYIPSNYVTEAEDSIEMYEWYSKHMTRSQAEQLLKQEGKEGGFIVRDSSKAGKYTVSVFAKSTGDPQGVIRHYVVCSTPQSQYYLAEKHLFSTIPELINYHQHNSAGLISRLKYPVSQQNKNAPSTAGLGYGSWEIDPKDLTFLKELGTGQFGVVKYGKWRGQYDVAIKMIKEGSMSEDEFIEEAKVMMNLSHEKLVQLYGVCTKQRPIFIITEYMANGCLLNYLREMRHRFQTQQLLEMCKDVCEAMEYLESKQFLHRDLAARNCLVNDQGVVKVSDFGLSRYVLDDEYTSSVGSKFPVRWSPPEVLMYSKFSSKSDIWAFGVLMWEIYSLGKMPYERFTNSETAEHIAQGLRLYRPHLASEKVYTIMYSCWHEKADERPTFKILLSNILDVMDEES

**Q.** Which IC50 does the source give for `CN(C)C(=O)N1CC=C(c2cc3c(-c4cccc(-n5ccc6cc(C7CC7)cc(F)c6c5=O)c4CO)nc(N)nc3[nH]2)CC1` here?
**A.** Its IC50 is 0.54 nM.

**Q.** For `Nc1nc(-c2cccc(-n3ccc4cc(C5CC5)cc(F)c4c3=O)c2CO)c2cc(-c3ccncc3)[nH]c2n1`, which IC50 is on record?
**A.** Its IC50 is 0.14 nM.
